Tests used:
GPR4 [1] = target: T1, GPR4 (Homo sapiens, UniProt P46093); assay: Radioligand binding to homogenates of GPR4-transfected CHO cells; conditions: GPR4-transfected CHO cell homogenates; for Kd: Scatchard analysis, [3H]SPC or [3H]16:0-LPC, read-out: dissociation constant (Kd); for Kd / maximum binding capacity: 4° C.; for competition for binding of [3H]SPC and [3H]16:0-LPC to GPR4: cold competitors
T1 construct: were used to generate full length GPR4, which was digested with EcoRI and Xba I and cloned into the pBs3HA vector; expressed in transfected cells
Procedure: To characterize the binding of SPC and LPC to GPR4 and TDAG8, we conducted radioligand binding assays. CHO cells were chosen for GPR4 binding assays, since HEK293 cells express relatively high levels of endogenous GPR4. CHO cells stably transfected with empty vector or GPR4 were serum starved for 20 h, then collected after exposure to 2 mM EDTA in PBS. The pelleted cells were stored at −80° C. until use. Binding assays were performed essentially as described previously (Xu et al. (2000) Nat Cell Biol 2, 261-267), except binding was performed at 4° C. Briefly, frozen cells (10^6 cells/ml) were homogenized in a binding buffer. Assays were performed in 96-well plates in triplicate with 100 μl cell homogenate (equivalent to 10^5 cells/well). Different amounts of [^3H]SPC or [^3H]16:0-LPC were added to the cell homogenates in 50 μl of binding buffer, in the presence or absence of cold SPC or 16:0-LPC, or other competitors. The plates were incubated at 4° C. for 120 min, unless otherwise indicated. Cell-bound [^3H]SPC or [^3H]LPC was collected onto a filter (Printed Filtermat A, Wallac, Gaithersburg, Md.) using an automated cell harvester (HARVESTER 96, Tomtec, Orange, Conn.). Specific binding was calculated by subtraction of nonspecific binding (binding detected in the presence of 100-fold excess unlabeled SPC or 16:0-LPC) from the total binding.
Cell homogenates were used for binding assays. Binding was conducted at 4° C. for 120 min or as indicated. [^3H]SPC and [^3H]16:0-LPC specifically bound to cell homogenates from GPR4-transfected CHO cells in a time-dependent manner and reached equilibrium after 60 min incubation at 4° C. […] The maximum binding capacities for SPC and 16:0-LPC were 996 fmole/10^5 cells for SPC and 1,528 fmole/10^5 cells for 16:0-LPC. […] Binding assays using [^3H]18:0-LPC gave similar results. We also tested the four glycosphingolipids, Psy, Glu-Sph, Gal-Cer, and Lac-Cer, for their ability to compete for the binding of [^3H]SPC and [^3H]16:0-LPC to GPR4.

GPR4 [2] = target: T1, GPR4; assay: Single-cell intracellular calcium assay (fura-2) in GPR4-GFP-transfected MCF10A cells; format: cell-based; conditions: for EC50: GPR4-transfected MCF10A cells, 1 mM EGTA, read-out: EC50 of calcium mobilization; for block of the lipid-induced increase in [Ca2+]i by BSA: lipid 1 μM preincubated with 0.5% fatty acid-free BSA, lipid:BSA approximately 1:75; for increase in [Ca2+]i in GPR4- vs vector-transfected/parental MCF10A cells: lipid at 1 μM
Procedure: Measurement of [Ca^2+]i, was performed as described previously in Xu et al. (2000) Nat Cell Biol 2, 261-267. Briefly, pGPR4-GFP-transfected MCF10A cells were grown in specialized glass-bottom dishes (Bioptech, Inc., Butler, Pa.) and loaded with fura-2 in HEPES buffered saline. Using a dual-wavelength spectrofluorometer (RFK-6002, Photon Technology Int'l, So. Brunswick, N.J.) coupled to an inverted fluorescence microscope (Olympus, IX-70, Lake Success, N.Y.), GFP-positive cells were identified using an excitation wavelength of 488 nm, a dichroic 505 nm long-pass filter and an emitter filter at bandpass of 535 nm (Chroma Technology, Brattleboro, Vt.). Measurements of [Ca^2+]i were performed on individual GPR4-GFP positive cells at excitation wavelengths of 340 and 380 nm and an emission wavelength of 510 nm. Conversion of the 340/380 ratio value into [Ca^2+]i in nM was estimated by comparing the cellular fluorescence ratio with ratios acquired using fura-2 (free acid) in buffers containing known Ca^2+ concentrations. [Ca^2+]i was then calculated as described by Grynkiewicz et al. (1985) J Biol Chem 260, 3440-3450. All calcium assays were performed in the presence of 1 mM EGTA in the assay buffers. Therefore, intracellular calcium release, not calcium influx, was analyzed.
To test whether GPR4 is a receptor for SPC, MCF10A cells were transiently transfected with pGPR4-GFP.
The GFP receptor fusion was used to identify positively transfected cells, and single-cell calcium assays were performed as described in our previous studies, such as Xu et al. (2000) Nat Cell Biol 2, 261-267.

GPR4 [3] = target: T1, GPR4; assay: Internalization of GPR4-GFP in HEK293 cells (confocal microscopy); format: cell-based; conditions: 1 μM lipid, 37° C., GPR4-GFP HEK293 cells
Procedure: pGPR4-GFP stably expressing HEK293 cells were cultured in 6 cm tissue culture dishes in RPMI1640 with 10% FBS. After 16-24 h serum starvation, cells were treated with different lipids at 37° C. for 2 h. Cells were washed with cold PBS and fixed with 4% paraformaldehyde in PBS. The subcellular localization of GPR4-GFP protein was visualized under a Leica TV confocal fluorescence microscope with a 63× oil immersion lens (Wetzler, Heidelberg, Germany). The excitation and emission wavelengths were 488 nm and 515-540 nm, respectively.
G protein coupled receptors undergo agonist-dependent desensitization and internalization. When HEK293 cells are transfected with the pEGFP-N1 vector, GFP protein is expressed in the cytosol of the cells. The GPR4-GFP and TDAG8-GFP fusion proteins, on the other hand, was expressed only on the plasma membrane.

T1 sequence (P46093 whole entry): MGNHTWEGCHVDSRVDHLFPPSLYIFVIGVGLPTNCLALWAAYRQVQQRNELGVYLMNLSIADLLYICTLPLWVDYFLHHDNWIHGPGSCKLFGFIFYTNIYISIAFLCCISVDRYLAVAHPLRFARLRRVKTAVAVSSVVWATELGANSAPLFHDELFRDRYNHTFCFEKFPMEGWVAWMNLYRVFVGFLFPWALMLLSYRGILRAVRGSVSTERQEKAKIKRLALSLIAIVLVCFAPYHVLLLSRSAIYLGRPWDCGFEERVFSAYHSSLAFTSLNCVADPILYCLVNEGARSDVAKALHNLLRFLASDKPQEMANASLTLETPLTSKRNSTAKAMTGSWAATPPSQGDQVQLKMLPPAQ

| Compound | Kd (GPR4 [1]) [nM] | EC50 (GPR4 [2]) [nM] | block of the lipid-induced increase in [Ca2+]i by BSA (GPR4 [2]) | maximum binding capacity (GPR4 [1]) | competition for binding of [3H]SPC and [3H]16:0-LPC to GPR4 (GPR4 [1]) | increase in [Ca2+]i in GPR4- vs vector-transfected/parental MCF10A cells (GPR4 [2]) | internalization of GPR4 (GPR4 [3]) |
| --- | --- | --- | --- | --- | --- | --- | --- |
| lysophosphatidylcholine [LPC] | 159 | 1100 | > 95% |  |  |  |  |
| CCCCCCCCCCCCC/C=C/[C@@H](O)[C@@H](N)COP(=O)([O-])OCC[N+](C)(C)C [SPC, Sphingosylphosphorylcholine] | 36 | 105 | more than 50% | 996 fmole/10^5 cells | successfully competed for binding | stimulated an increase in [Ca^2+]i in GPR4-, but not vector-transfected MCF10A cells | induced internalization of GPR4 |
| CCCCCCCCCCCCCCCC(=O)OC[C@@H](O)COP(=O)([O-])OCC[N+](C)(C)C [16:0-LPC] | 159 |  |  | 1,528 fmole/10^5 cells | successfully competed for binding | stimulated to produce increased [Ca^2+]i | induced internalization of GPR4 |

Reference: patent US20020107197A1, “Ligands for G protein coupled receptors and methods of using them” (priority 2000, published 2002)
